Non-standard residues stand in square brackets, D forms with d. Residues, ends and D or L forms follow the SMILES beside them. *: point of attachment. dPhe(4-NHCONH2) = NC(=O)Nc1ccc(C[C@@H](N)C(=O)O)cc1; Dihydroorotyl(S) = O=C1C[C@@H](C(=O)*)NC(=O)N1; dPhe(4-Cl) = N[C@H](Cc1ccc(Cl)cc1)C(=O)O; Phe(4-NH2) = Nc1ccc(C[C@H](N)C(=O)O)cc1; d2Nal = N[C@H](Cc1ccc2ccccc2c1)C(=O)O; Lys(iPr) = CC(C)NCCCC[C@H](N)C(=O)O; d3Pal = N[C@H](Cc1cccnc1)C(=O)O
What was measured:
[1] = system: patient with systemic lupus erythematosus; assay: Treatment of lupus patient with degarelix; assay type: in vivo, human
Text: The patient has a medical history of a multimorbid patient. Systemic lupus erythematosus (SLE) was diagnosed in 1988 based on Raynauds, skin changes, arthralgia, high titre lupus anticoagulant, ANA, SSA, and SSB. Chilblain type changes in hands and feet (FIGS. 6-8). […] The patient suffered cardiac arrest in 2012, coronary stenosis was observed. The patient had kidney failure since 2012, required dialysis, stabilized creatinine around 150, osteoporosis, COPD, and is a smoker.
By September 2014, we had no treatment options left. Therefore, we decided to offer […] degarelix. GnRH antagonists have shown anti-inflammatory effects and therefore we considered that degarelix, a depot GnRH antagonist, may have a therapeutic effect in lupus. • Sep. 15, 2014, […] received […] loading dose of degarelix, 240 mg sc. Assessment of Response
Proteinuria decline is linked to improved lupus nephritis outcomes. Korbet et al studied 61 patients in a controlled trial comparing standard therapy with plasmapheresis for severe lupus nephritis. […] They had constant, increasing proteinuria in 2014.

[2] = system: patient with seropositive rheumatoid arthritis; assay: Degarelix with and without Methotrexate in rheumatoid arthritis; assay type: in vivo, human; conditions: RA patient
Description: • person with seropositive rheumatoid arthritis with disease duration of 16 years • Fulfilled ACR 2010 classification criteria for rheumatoid arthritis Experimental Treatment and Assessment of Response • Previously failed 3 biologics (Etanercept, Actemra, and Rituximab). Last tried Rituximab November 2013, but increasing disease activity and blood tests (CRP and ESR) during the months thereafter until start of Degarelix 16 Jun. 2014. Concomitantly used stable Methotrexate 10 mg weekly since 1999. • Started Degarelix 240 mg inductions dose 16 Jun. 2014, with 80 mg every 2 weeks thereafter. • Disease activity reduced and they achieved an ACR60 response by 29 Sep. 2014 under the introduction of Degarelix and stable concomitant Methotrexate and Prednisolone. • 3 Oct. 2014 the patient's pulmonary physician stopped Methotrexate treatment due to pleural thickening, and CT imaging supporting lung fibrosis which was suspected to be due to Methotrexate. The patient had dyspnea which resolved once Methotrexate was stopped. • By 21 Nov. 2014, the patients disease activity score had increased from 5.1 (29 Sep. 14) to 5.7 (21 Nov. 2014), due to the discontinuation of Methotrexate.

[3] = Peripheral GnRH levels by ELISA in patients with autoimmune diseases; assay type: in vivo, human; conditions: RA Pt A
Text: (§1) We analysed peripheral GnRH levels in patients with various autoimmune diseases using ELISA. […] Due to the nature of ELISA assays, the concentration in pg/mL should not necessarily be regarded as absolute, and may be interpreted as relative.

peripheral GnRH = assay: as above; assay type: in vivo, human
Text: as §1

[4] = system: patients with rheumatoid arthritis; conditions: human, in vivo
Description: They were not taking any therapies for osteoporosis during this period.

CC(=O)N[C@H](Cc1ccc2ccccc2c1)C(=O)N[C@H](Cc1ccc(Cl)cc1)C(=O)N[C@H](Cc1cccnc1)C(=O)N[C@@H](CO)C(=O)N[C@@H](Cc1ccc(NC(=O)[C@@H]2CC(=O)NC(=O)N2)cc1)C(=O)N[C@H](Cc1ccc(NC(N)=O)cc1)C(=O)N[C@@H](CC(C)C)C(=O)N[C@@H](CCCCNC(C)C)C(=O)N1CCC[C@H]1C(=O)N[C@H](C)C(N)=O [Degarelix] (Ac-[d2Nal][dPhe(4-Cl)][d3Pal]S[Phe(4-NH2)](Dihydroorotyl(S))[dPhe(4-NHCONH2)]L[Lys(iPr)]P[dA]-NH2)
ANA (<1) ([1]; 07.11.14): 26↑ | FSH (<12) ([1]; 07.11.14): <0.1 | LH (<12) ([1]; 07.11.14): <0.3 | Total urinary protein ([1]; 07.11.14): 0.17 g/L | ANA (<1) ([1]; 14.10.14): 28↑ | FSH (<12) ([1]; 14.10.14): <0.1 | Total urinary protein ([1]; 14.10.14): 0.15^2 g/L | FSH (<12) ([1]; 15.09.14 (day of loading dose)): 14↑ | LH (<12) ([1]; 15.09.14 (day of loading dose)): 11 | Total urinary protein ([1]; 15.09.14 (day of loading dose)): 0.78↑ g/L | ANA (<1) ([1]; 15.09.14 (day of loading dose), out of range): >32↑ | FSH (<12) ([1]; 23.09.14): 2 | LH (<12) ([1]; 23.09.14): <0.3 | Total urinary protein ([1]; 23.09.14): 0.75↑ g/L | proteinuria ([1]; at 2 months): in remission | morning pain ([1]; before treatment): 3.5 h | proteinuria ([1]; by 1 month): complete remission | morning pain ([1]; by 8 weeks): 0 h | morning pain ([1]; by day 5): 1.5 h | morning pain ([1]; by day 10): 0 h | ulcers on hands and feet ([1]; by day 10 of treatment): several ulcers had healed | ANA (<1) ([1]; column 23.09.14 (25.09.14)): 31↑ | disease activity score ([2]; 21 Nov. 2014, Degarelix after Methotrexate stopped 3 Oct. 2014): 5.7 | disease activity score ([2]; 29 Sep. 14, Degarelix with Methotrexate): 5.1 | ACR response ([2]; by 29 Sep. 2014, with stable concomitant Methotrexate and Prednisolone): ACR60 | CRP ([3]; after 3 months): 54 mg/L | DAS score ([3]; after 3 months): 4.2 | CRP ([3]; baseline): 142 mg/L | DAS score ([3]; baseline): 8.6 | peripheral GnRH (peripheral GnRH; Multiple Sclerosis Patient B, after 1 month): 210 pg/mL | peripheral GnRH (peripheral GnRH; Multiple Sclerosis Patient B, baseline): 318 pg/mL | peripheral GnRH (peripheral GnRH; Psoriasis Patient C, after 3 months): 274 pg/mL | peripheral GnRH (peripheral GnRH; Psoriasis Patient C, baseline): 300 pg/mL | peripheral GnRH (peripheral GnRH; RA Pt A, after 3 months, 240 mg loading, 80 mg every 2 weeks): 359 pg/mL | peripheral GnRH (peripheral GnRH; RA Pt A, baseline): 394 pg/mL | bone mineral density in hips [4]: improved
